Blank lines part the entries; values can stand above or below the compound they belong to.
Test system: 276233-004-R-J1-PDC complex spheroid viability
Assay: Anticancer human tumor 276233-004-R-J1-PDC patient-derived colon adenocarcinoma cell line growth inhibition [GQUAD]
Conditions: for IC50: curve of first compound; for viability, T/C: stronger effect = lower value
In short: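 Viability of tumor cells grown as complex spheroids with endothelial and stromal cells, exposed to drug combinations. Top concentration at or near clinical Cmax (else 10 microM), diluted in half-log increments.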

[1] = second compound 0.0316 µM, first compound 0.0316 µM
[2] = second compound 0.0316 µM, first compound 0.316 µM
[3] = second compound 0.1 µM, first compound 0.0316 µM
[4] = second compound 0.1 µM, first compound 0.316 µM
[5] = second compound 0.316 µM, first compound 0.0316 µM
[6] = second compound 0.316 µM, first compound 0.316 µM
[7] = second compound 1 µM, first compound 0.0316 µM
[8] = second compound 1 µM, first compound 0.316 µM
[9] = second compound 3.16 µM, first compound 0.0316 µM
[10] = second compound 3.16 µM, first compound 0.316 µM
[11] = second compound 10 µM, first compound 0.0316 µM
[12] = second compound 10 µM, first compound 0.316 µM
[13] = second compound 0.0316 µM, first compound 0.1 µM
[14] = second compound 0.0316 µM, first compound 1 µM
[15] = second compound 0.0316 µM, first compound 3.16 µM
[16] = second compound 0.0316 µM, first compound 10 µM
[17] = second compound 0.1 µM, first compound 0.1 µM
[18] = second compound 0.1 µM, first compound 1 µM
[19] = second compound 0.1 µM, first compound 3.16 µM
[20] = second compound 0.1 µM, first compound 10 µM
[21] = second compound 0.316 µM, first compound 0.1 µM
[22] = second compound 0.316 µM, first compound 1 µM
[23] = second compound 0.316 µM, first compound 3.16 µM
[24] = second compound 0.316 µM, first compound 10 µM
[25] = second compound 1 µM, first compound 0.1 µM
[26] = second compound 1 µM, first compound 1 µM
[27] = second compound 1 µM, first compound 3.16 µM
[28] = second compound 1 µM, first compound 10 µM
[29] = second compound 3.16 µM, first compound 0.1 µM
[30] = second compound 3.16 µM, first compound 1 µM
[31] = second compound 3.16 µM, first compound 3.16 µM
[32] = second compound 3.16 µM, first compound 10 µM
[33] = second compound 10 µM, first compound 0.1 µM
[34] = second compound 10 µM, first compound 1 µM
[35] = second compound 10 µM, first compound 3.16 µM
[36] = second compound 10 µM, first compound 10 µM
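Further: spheroids exposed to drugs for seven days.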
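Wherever viability, T/C is given: 100% = DMSO vehicle control viability.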

- IC50 (second compound 0.0316 µM): > 316 nM
- IC50 (second compound 0.1 µM): > 316 nM
- IC50 (second compound 0.316 µM): > 316 nM
- IC50 (second compound 1 µM): > 316 nM
- IC50 (second compound 3.16 µM): > 316 nM
- IC50 (second compound 10 µM): > 316 nM
Structure (SMILES): CCc1c2c(nc3ccc(O)cc13)-c1cc3c(c(=O)n1C2)COC(=O)[C@]3(O)CC + Cc1cnc(CNC(=O)c2c(=O)c3ccc(N4CCCN(C)CC4)nc3n3c2sc2ccccc23)cn1
- viability, T/C (second compound 0.0316 µM, first compound 0.000999 µM): 96.8%
- viability, T/C (second compound 0.0316 µM, first compound 0.00316 µM): 92.2%
- viability, T/C (second compound 0.0316 µM, first compound 0.00999 µM): 90.9%
- viability, T/C [1]: 90%
- viability, T/C (second compound 0.0316 µM, first compound 0.0999 µM): 99.4%
- viability, T/C [2]: 103%
- viability, T/C (second compound 0.1 µM, first compound 0.000999 µM): 97.9%
- viability, T/C (second compound 0.1 µM, first compound 0.00316 µM): 90.4%
- viability, T/C (second compound 0.1 µM, first compound 0.00999 µM): 90.6%
- viability, T/C [3]: 110%
- viability, T/C (second compound 0.1 µM, first compound 0.0999 µM): 94.2%
- viability, T/C [4]: 89.2%
- viability, T/C (second compound 0.316 µM, first compound 0.000999 µM): 91.6%
- viability, T/C (second compound 0.316 µM, first compound 0.00316 µM): 103%
- viability, T/C (second compound 0.316 µM, first compound 0.00999 µM): 105%
- viability, T/C [5]: 84.8%
- viability, T/C (second compound 0.316 µM, first compound 0.0999 µM): 85.8%
- viability, T/C [6]: 79.4%
- viability, T/C (second compound 1 µM, first compound 0.000999 µM): 85.4%
- viability, T/C (second compound 1 µM, first compound 0.00316 µM): 74.7%
- viability, T/C (second compound 1 µM, first compound 0.00999 µM): 84.7%
- viability, T/C [7]: 77%
- viability, T/C (second compound 1 µM, first compound 0.0999 µM): 83.2%
- viability, T/C [8]: 76.2%
- viability, T/C (second compound 3.16 µM, first compound 0.000999 µM): 81.6%
- viability, T/C (second compound 3.16 µM, first compound 0.00316 µM): 96.1%
- viability, T/C (second compound 3.16 µM, first compound 0.00999 µM): 80.2%
- viability, T/C [9]: 67.4%
- viability, T/C (second compound 3.16 µM, first compound 0.0999 µM): 85.1%
- viability, T/C [10]: 71.5%
- viability, T/C (second compound 10 µM, first compound 0.000999 µM): 72.4%
- viability, T/C (second compound 10 µM, first compound 0.00316 µM): 88.4%
- viability, T/C (second compound 10 µM, first compound 0.00999 µM): 75.5%
- viability, T/C [11]: 65.5%
- viability, T/C (second compound 10 µM, first compound 0.0999 µM): 77.8%
- viability, T/C [12]: 62%

- IC50 (second compound 0.0316 µM): > 10000 nM
- IC50 (second compound 0.1 µM): > 10000 nM
- IC50 (second compound 0.316 µM): > 10000 nM
- IC50 (second compound 1 µM): > 10000 nM
- IC50 (second compound 3.16 µM): > 10000 nM
- IC50 (second compound 10 µM): > 10000 nM
Structure (SMILES): Cc1cccc(N(C)C(=O)C2C(O)CCN2c2nc(C)cc(C(F)(F)F)c2C#N)c1 (stereo unspecified) + Cc1cnc(CNC(=O)c2c(=O)c3ccc(N4CCCN(C)CC4)nc3n3c2sc2ccccc23)cn1
- viability, T/C [1]: 89.8%
- viability, T/C [13]: 75.8%
- viability, T/C [2]: 90.8%
- viability, T/C [14]: 84.7%
- viability, T/C [15]: 98.8%
- viability, T/C [16]: 92.8%
- viability, T/C [3]: 75.4%
- viability, T/C [17]: 78.2%
- viability, T/C [4]: 80.1%
- viability, T/C [18]: 88.6%
- viability, T/C [19]: 80.2%
- viability, T/C [20]: 82.5%
- viability, T/C [5]: 77.2%
- viability, T/C [21]: 72.1%
- viability, T/C [6]: 81.9%
- viability, T/C [22]: 76.4%
- viability, T/C [23]: 86.4%
- viability, T/C [24]: 84.8%
- viability, T/C [7]: 73.5%
- viability, T/C [25]: 79.1%
- viability, T/C [8]: 85.6%
- viability, T/C [26]: 79.5%
- viability, T/C [27]: 77.6%
- viability, T/C [28]: 87.4%
- viability, T/C [9]: 65.7%
- viability, T/C [29]: 69.8%
- viability, T/C [10]: 70%
- viability, T/C [30]: 56.6%
- viability, T/C [31]: 79%
- viability, T/C [32]: 71%
- viability, T/C [11]: 69.9%
- viability, T/C [33]: 63.3%
- viability, T/C [12]: 73.9%
- viability, T/C [34]: 69%
- viability, T/C [35]: 66.5%
- viability, T/C [36]: 79.3%

- IC50 (second compound 0.0316 µM): 9690 nM
- IC50 (second compound 0.1 µM): 6820 nM
- IC50 (second compound 0.316 µM): 3530 nM
- IC50 (second compound 1 µM): 2330 nM
- IC50 (second compound 3.16 µM): 2160 nM
- IC50 (second compound 10 µM): 2030 nM
Structure (SMILES): COc1cccc2c1C(=O)c1c(O)c3c(c(O)c1C2=O)CC(O)(C(=O)CO)CC3OC1CC(N)C(O)C(C)O1 (stereo unspecified) + Cc1cnc(CNC(=O)c2c(=O)c3ccc(N4CCCN(C)CC4)nc3n3c2sc2ccccc23)cn1
- viability, T/C [1]: 81.5%
- viability, T/C [13]: 87.3%
- viability, T/C [2]: 86%
- viability, T/C [14]: 67.1%
- viability, T/C [15]: 79.6%
- viability, T/C [16]: 48.6%
- viability, T/C [3]: 79%
- viability, T/C [17]: 94.9%
- viability, T/C [4]: 72.2%
- viability, T/C [18]: 87.9%
- viability, T/C [19]: 66.3%
- viability, T/C [20]: 41.9%
- viability, T/C [5]: 80.4%
- viability, T/C [21]: 92.3%
- viability, T/C [6]: 87.2%
- viability, T/C [22]: 78.3%
- viability, T/C [23]: 51.8%
- viability, T/C [24]: 35%
- viability, T/C [7]: 78%
- viability, T/C [25]: 95.8%
- viability, T/C [8]: 83.1%
- viability, T/C [26]: 73%
- viability, T/C [27]: 41.8%
- viability, T/C [28]: 24.4%
- viability, T/C [9]: 78.1%
- viability, T/C [29]: 78.8%
- viability, T/C [10]: 77.4%
- viability, T/C [30]: 60.4%
- viability, T/C [31]: 44.5%
- viability, T/C [32]: 13%
- viability, T/C [11]: 73.2%
- viability, T/C [33]: 60.6%
- viability, T/C [12]: 64.5%
- viability, T/C [34]: 69%
- viability, T/C [35]: 39.4%
- viability, T/C [36]: 13.5%
